Test results reported in US10577378B2, “EIF4A-inhibiting compounds and methods related thereto” (eFFECTOR Therapeutics, Inc., priority 2015, dated 2020).

The compounds below were run on MDA-MB-231 human breast cancer cells (assay: Cell proliferation assay (CellTiter-Glo, 72 hours treatment)). Conditions: Homo sapiens; MDA-MB-231 cells, 72 hours at 37° C., CellTiter-Glo; read-out: MDA-MB-231 cell proliferation assay (IC50).
Format: cell-based
Summary of the method: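 MDA-MB-231 cells seeded at 2,500 cells/well, treated next day with compound or DMSO vehicle for 72 h at 37 °C. Proliferation read by CellTiter-Glo; IC50 from sigmoidal non-linear regression, binned as +++ (<100 nM), ++ (100–1000 nM), + (>1000 nM).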

First: CS(=O)(=O)[C@H]1[C@@H](O)[C@@]2(O)c3ncc(Cl)cc3O[C@@]2(c2ccc(Br)cc2)[C@@H]1c1ccccc1 (racemic) [84F, Rac-(5aR,6S,7R,8S,8aS)-5a-(4-bromophenyl)-3-chloro-7-(methylsulfonyl)-6-phenyl-5a,6,7,8-tetrahydro-8aH-cyclopenta[4,5]furo[3,2-b]pyridine-8,8a-diol]
Second: CN(Cc1ccccc1)S(=O)(=O)[C@H]1[C@@H](O)[C@@]2(O)c3ncc(Cl)cc3O[C@@]2(c2ccc(Br)cc2)[C@@H]1c1ccccc1 (racemic) [123F, rac-(5aR,6S,7R,8S,8aS)—N-benzyl-5a-(4-bromophenyl)-3-chloro-8,8a-dihydroxy-N-methyl-6-phenyl-5a,7,8,8a-tetrahydro-6H-cyclopenta[4,5]furo[3,2-b]pyridine-7-sulfonamide]
The IC50 of the first is higher: over 1000 nM for the first, 100 to 1000 nM for the second.

First: COc1cncc2c1[C@]1(O)[C@H](O)[C@H](CN3CCCCC3)[C@@H](c3ccccc3)[C@]1(c1ccc(C#N)cc1)O2 (single isomer, unassigned) [258F]
Second: COc1cncc2c1[C@]1(O)[C@H](O)[C@H](CN3CCC(F)(F)CC3)[C@@H](c3ccccc3)[C@]1(c1ccc(C#N)cc1)O2 (single isomer, unassigned) [113F]
The IC50 of the first is lower: under 100 nM for the first, 100 to 1000 nM for the second. The first is the more potent here.

`COc1cncc2c1[C@]1(O)[C@H](O)[C@H](C(=O)N3[C@@H]4CC[C@H]3COC4)[C@@H](c3ccccc3)[C@]1(c1ccc(Br)cc1)O2` (racemic) [264F, Rac-((1R,5S)-3-oxa-8-azabicyclo[3.2.1]octan-8-yl)((4bS,5R,6R,7S,7aR)-7a-(4-bromophenyl)-4b,5-dihydroxy-4-methoxy-7-phenyl-4b,6,7,7a-tetrahydro-5H-cyclopenta[4,5]furo[2,3-c]pyridin-6-yl)methanone] and `COc1cncc2c1[C@]1(O)[C@H](O)[C@H](C(=O)N3CC4(COC4)C3)[C@@H](c3ccccc3)[C@]1(c1ccc(Br)cc1)O2` (racemic) [235F, Rac-((4bS,5R,6R,7S,7aR)-7a-(4-bromophenyl)-4b,5-dihydroxy-4-methoxy-7-phenyl-4b,6,7,7a-tetrahydro-5H-cyclopenta[4,5]furo[2,3-c]pyridin-6-yl)(2-oxa-6-azaspiro[3.3]heptan-6-yl)methanone] cannot be ordered by IC50: under 100 nM for the first, under 100 nM for the second.

`COc1cncc2c1[C@]1(O)[C@@H]3OC(=O)N[C@@H]3[C@@H](c3ccccc3)[C@]1(c1ccc(C(F)F)cc1)O2` (racemic) [269F, rac-(3aR,4R,4aR,9bS,9cR)-4a-(4-(difluoromethyl)phenyl)-9b-hydroxy-9-methoxy-4-phenyl-3,3a,4,4a,9b,9c-hexahydro-2H-oxazolo[4″,5″:4′,5′]cyclopenta[1′,2′:4,5]furo[2,3-c]pyridin-2-one] and `COc1cncc2c1[C@]1(O)[C@H](O)[C@H](C(=O)N(C)CCF)[C@@H](c3ccccc3)[C@]1(c1ccc(Br)cc1)O2` (racemic) [247F, Rac-(4bS,5R,6R,7S,7aR)-7a-(4-bromophenyl)-N-(2-fluoroethyl)-4b,5-dihydroxy-4-methoxy-N-methyl-7-phenyl-4b,6,7,7a-tetrahydro-5H-cyclopenta[4,5]furo[2,3-c]pyridine-6-carboxamide] cannot be ordered by IC50: under 100 nM for the first, under 100 nM for the second.

`COC(=O)[C@@]12C[C@@H]1[C@@]1(O)c3ncc(Cl)cc3O[C@@]1(c1ccc(Br)cc1)[C@@H]2c1ccccc1` (racemic) [24F, rac-methyl (5aR,6R,6aS,7aS,7bR)-5a-(4-bromophenyl)-3-chloro-7b-hydroxy-6-phenyl-5a,7,7a,7b-tetrahydrocyclopropa[4′,5′]cyclopenta[1′,2′:4,5]furo[3,2-b]pyridine-6a(6H)-carboxylate] and `COC(=O)C1(F)[C@@H](O)[C@@]2(O)c3ncc(Cl)cc3O[C@@]2(c2ccc(Br)cc2)[C@@H]1c1ccccc1` (mixture of isomers) [58F, Rac-methyl (5aR,6S,8S,8aS)-5a-(4-bromophenyl)-3-chloro-7-fluoro-8,8a-dihydroxy-6-phenyl-5a,7,8,8a-tetrahydro-6H-cyclopenta[4,5]furo[3,2-b]pyridine-7-carboxylate] cannot be ordered by IC50: over 1000 nM for the first, over 1000 nM for the second.

Going from `COc1ccc([C@@]23Oc4cc(OC)ccc4[C@]2(N)[C@H](O)[C@H](C(=O)N(C)C)[C@H]3c2ccccc2)cc1` (racemic) [44F, Rac-(1R,2R,3S,3aR,8bS)-8b-amino-1-hydroxy-6-methoxy-3a-(4-methoxyphenyl)-N,N-dimethyl-3-phenyl-2,3,3a,8b-tetrahydro-1H-cyclopenta[b]benzofuran-2-carboxamide] to `CN(C)C(=O)[C@H]1[C@@H](O)[C@@]2(O)c3ncc(Cl)cc3O[C@@]2(c2ccc(C#N)cc2)[C@@H]1c1ccccc1` (single isomer, unassigned) [3F], the IC50 falls from over 1000 nM to under 100 nM. The second is the more potent here.

`CN(C)C[C@H]1[C@@H](O)[C@@]2(O)c3ncc(Cl)cc3O[C@@]2(c2ccc(C#N)cc2)[C@@H]1c1ccccc1` [104F, 4-((5aR,6S,7S,8R,8aS)-3-chloro-7-((dimethylamino)methyl)-8,8a-dihydroxy-6-phenyl-6,7,8,8a-tetrahydro-5aH-cyclopenta[4,5]furo[3,2-b]pyridin-5a-yl)benzonitrile] and `CN(C)C[C@H]1[C@@H](O)[C@@]2(O)c3ncc(Cl)cc3O[C@@]2(c2ccc(C(F)(F)F)cc2)[C@@H]1c1ccccc1` (single isomer, unassigned) [109F] fall in the same range of IC50: 100 to 1000 nM for the first, 100 to 1000 nM for the second.

First: NC[C@@H]1C[C@@H](c2ccccc2)[C@]2(c3ccc(Br)cc3)Oc3cc(Cl)cnc3[C@]12O (racemic) [165F, Rac-(5aR,6S,8S,8aR)-8-(aminomethyl)-5a-(4-bromophenyl)-3-chloro-6-phenyl-5a,6,7,8-tetra-hydro-8aH-cyclopenta[4,5]furo[3,2-b]pyridin-8a-ol]
Second: COc1cncc2c1[C@]1(O)[C@@H](CN3CCOCC3)[C@H](CO)[C@@H](c3ccccc3)[C@]1(c1ccc(Br)cc1)O2 (racemic) [179F, Rac-(4bR,5R,6R,7S,7aR)-7a-(4-bromophenyl)-6-(hydroxymethyl)-4-methoxy-5-(morpho-linomethyl)-7-phenyl-5,6,7,7a-tetrahydro-4bH-cyclopenta[4,5]furo[2,3-c]pyridin-4b-ol]
The IC50 of the first is higher: 100 to 1000 nM for the first, under 100 nM for the second. The second is the more potent here.

`COc1cncc2c1[C@]1(O)[C@H](O)[C@H](CN(C)C3CC3)[C@@H](c3ccccc3)[C@]1(c1ccc(C#N)cc1)O2` (racemic) [246F, Rac-4-((4bS,5R,6S,7S,7aR)-6-((cyclopropyl(methyl)amino)methyl)-4b,5-dihydroxy-4-methoxy-7-phenyl-4b,5,6,7-tetrahydro-7aH-cyclopenta[4,5]furo[2,3-c]pyridin-7a-yl)benzonitrile] and `COc1cncc2c1[C@]1(O)[C@H](O)[C@H](CN3CC(F)(F)C3)[C@@H](c3ccccc3)[C@]1(c1ccc(C#N)cc1)O2` (single isomer, unassigned) [122F] fall in the same range of IC50: 100 to 1000 nM for the first, 100 to 1000 nM for the second.

First: COc1cncc2c1[C@]1(O)[C@@H](CNCc3ccnn3C)[C@H](CO)[C@@H](c3ccccc3)[C@]1(c1ccc(Br)cc1)O2 (racemic) [203F, Rac-(4bR,5R,6R,7S,7aR)-7a-(4-bromophenyl)-6-(hydroxymethyl)-4-methoxy-5-((((1-methyl-1H-pyrazol-5-yl)methyl)amino)methyl)-7-phenyl-5,6,7,7a-tetrahydro-4bH-cyclopenta[4,5]furo[2,3-c]pyridin-4b-ol]
Second: COc1cncc2c1[C@]1(O)[C@H](O)[C@H](CN3CC4CC(C3)O4)[C@@H](c3ccccc3)[C@]1(c1ccc(C#N)cc1)O2 (single isomer, unassigned) [274F]
The IC50 of the first is lower: under 100 nM for the first, 100 to 1000 nM for the second.

`COc1cc2c(c(OC)n1)[C@]1(O)[C@H](O)[C@H](CN(C)C)[C@@H](c3ccccc3)[C@]1(c1ccc(C#N)cc1)O2` (single isomer, unassigned) [231F] and `CCN(CC)C[C@H]1[C@@H](O)[C@@]2(O)c3c(cc(OC)nc3OC)O[C@@]2(c2ccc(C#N)cc2)[C@@H]1c1ccccc1` (racemic) [232F, Rac-4-((5aR,6S,7S,8R,8aS)-7-((diethylamino)methyl)-8,8a-dihydroxy-1,3-dimethoxy-6-phenyl-6,7,8,8a-tetrahydro-5aH-cyclopenta[4,5]furo[3,2-c]pyridin-5a-yl)benzonitrile] cannot be ordered by IC50: under 100 nM for the first, under 100 nM for the second.

First: COc1nc(C#N)cc2c1[C@]1(O)[C@H](O)[C@H](CN3CCCC(F)(F)C3)[C@@H](c3ccccc3)[C@]1(c1ccc(C#N)cc1)O2 (racemic) [154F, Rac-(5aR,6S,7S,8R,8aS)-5a-(4-cyanophenyl)-7-((3,3-difluoropiperidin-1-yl)methyl)-8,8a-dihydroxy-1-methoxy-6-phenyl-5a,7,8,8a-tetrahydro-6H-cyclopenta[4,5]furo[3,2-c]pyridine-3-carbonitrile]
Second: COc1nc(C#N)cc2c1[C@]1(O)[C@H](O)[C@H](CN3CC(F)(F)C3)[C@@H](c3ccccc3)[C@]1(c1ccc(C#N)cc1)O2 [288F, (5aR,6S,7S,8R,8aS)-5a-(4-cyanophenyl)-7-((3,3-difluoroazetidin-1-yl)methyl)-8,8a-dihydroxy-1-methoxy-6-phenyl-5a,7,8,8a-tetrahydro-6H-cyclopenta[4,5]furo[3,2-c]pyridine-3-carbonitrile]
The IC50 of the first is higher: 100 to 1000 nM for the first, under 100 nM for the second.

`COc1nc(C#N)cc2c1[C@]1(O)[C@H](O)[C@H](CN3CCC34CC4(F)F)[C@@H](c3ccccc3)[C@]1(c1ccc(C#N)cc1)O2` (mixture of isomers) [221F, Rac-(5aR,6S,7S,8R,8aS)-5a-(4-cyanophenyl)-7-((1,1-difluoro-4-azaspiro[2.3]hexan-4-yl)methyl)-8,8a-dihydroxy-1-methoxy-6-phenyl-5a,7,8,8a-tetrahydro-6H-cyclopenta[4,5]furo[3,2-c]pyridine-3-carbonitrile] and `COc1nc(C#N)cc2c1[C@]1(O)[C@@H](CN(C)C)[C@H](CO)[C@@H](c3ccccc3)[C@]1(c1ccc(C#N)cc1)O2` (racemic) [210F, Rac-(5aR,6S,7R,8R,8aR)-5a-(4-cyanophenyl)-8-((dimethylamino)methyl)-8a-hydroxy-7-(hydroxymethyl)-1-methoxy-6-phenyl-5a,7,8,8a-tetrahydro-6H-cyclopenta[4,5]furo[3,2-c]pyridine-3-carbonitrile] cannot be ordered by IC50: under 100 nM for the first, under 100 nM for the second.

`COc1cncc2c1[C@]1(O)[C@H](O)[C@H](CN3[C@@H]4CCC[C@H]3CC4)[C@@H](c3ccccc3)[C@]1(c1ccc(C#N)cc1)O2` (single isomer, unassigned) [268F] was tested, and the IC50 was 100 to 1000 nM.
